Target: T1, human GPR142 receptor (Homo sapiens, UniProt Q7Z601)
T1 construct: Gene ID: 350383) was cloned; expressed in transfected cells
T1 sequence (Q7Z601 1-462): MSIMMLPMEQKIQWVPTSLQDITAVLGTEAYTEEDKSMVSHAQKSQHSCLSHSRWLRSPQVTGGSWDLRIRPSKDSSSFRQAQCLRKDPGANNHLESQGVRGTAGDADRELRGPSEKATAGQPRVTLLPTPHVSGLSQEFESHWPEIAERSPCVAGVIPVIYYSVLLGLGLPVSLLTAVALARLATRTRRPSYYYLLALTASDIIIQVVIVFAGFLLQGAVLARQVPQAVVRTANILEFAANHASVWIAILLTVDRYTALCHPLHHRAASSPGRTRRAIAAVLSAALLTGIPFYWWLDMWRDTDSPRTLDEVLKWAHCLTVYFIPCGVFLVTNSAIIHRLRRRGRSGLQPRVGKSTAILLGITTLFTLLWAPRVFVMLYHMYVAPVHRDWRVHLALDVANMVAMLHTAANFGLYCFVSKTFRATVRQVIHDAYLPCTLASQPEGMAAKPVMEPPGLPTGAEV
Assay: IP1 accumulation HTRF assay for GPR142 agonist activity in HEK293 FLPinTREX cells
Type: cell-based
Conditions: HEK293 FLPinTREX cells stably expressing human GPR142, IP1 generation (IP-One HTRF), 60 minutes at 37° C.
Experimental: This assay allows monitoring activity of compounds acting on Gq-coupled receptors. The principle of the assay is based on the competition between IP1 generated in the cells with d2-labeled IP1 for binding to a monoclonal anti-IP1 […] cryptate that allows for measuring quantitative changes using the Homogeneous Time Resolved Fluorescence. LiCl is added to the cell stimulation buffer, causing IP1 to accumulate upon receptor activation.
The open reading frame encoding the human GPR142 receptor (primary accession number: NM_181790; Gene ID: 350383) was cloned into the pcDNA5/FRT/TO vector for stable, and inducible expression using the Flp-In™ T-REx™ technology in HEK293 FLPinTREX cells. For stable expression, HEK293 FLPinTREX cells were co-transfected with the vector encoding human GPR142 and the pOG44 plasmid that constitutively expresses the Flp recombinase for stable integration of the human GPR142 into the genome of the Flp-In™ T-REx™ host cell line. Stably expressing clones were obtained by hygromycin (100 μg/ml) selection. To test for GPR142 agonist activity the human GPR142 receptor cell clone was thawed at 37° C. and immediately diluted with cell culture medium (Hams F12 medium; 10% FBS, 15 μg/ml Blasticidin, 100 μg/ml Hygromycin B). After centrifugation, the cell pellet was resuspended in medium, and distributed into the assay well plates (10000 cells/well; 20 μl/well). Receptor expression was induced by adding 0.1 μg/ml Doxycyclin to the culture medium. The plates were incubated for one hour at room temperature, followed by a 24 hours incubation at 37° C./5% CO2. After washing the cells in the plate twice with 60 μl assay buffer (10 mM HEPES, 1 mM CaCl2, 0.5 mM MgCl2, 4.2 mM KCl, 146 mM NaCl, 5.5 mM Glucose, 50 mM LiCl and 0.1% BSA, pH 7.4; 20 μl buffer remained in the wells after washing), 10 μl per well of test compound diluted in assay buffer was added to the wells. The assay plate was incubated for 60 minutes at 37° C. Then 5 μl per well of Anti-IP1-Cryptate Tb solution (prepared by 1:33 dilution of stock with Lysis buffer from IP-One Kit) and 5 μl per well of IP1-d2 (Prepared by 1:33 dilution of stock with Lysis buffer from IP-One Kit) dilution were added, followed by another 60 minutes incubation (light protected, room temperature). The emissions at 615 nm and 665 nm (excitation wavelength: 320 nm) were measured on the EnVision™ reader (PerkinElmer). The ratio between the emission at 665 nm and 615 was calculated by the reader.
Each assay microtiter plate contained 8 wells in with vehicle controls instead of compound (100% CTL; low values, negative control) and 8 wells with a reference GPR142 agonist (200% CTL; high values; positive control). An IP1 standard curve was prepared according to the manufacturer.
The ratio between the emission at 665 nm and the emission at 615 nm (Em665/Em615 ratio) was calculated and the signals for the test items were normalized using the positive and negative controls by the following formula: 100−(100×[(ratio(sample)−ratio(low))/(ratio(high)−ratio(low))].

Compound	EC50 [nM]
Cc1ncn(C)c1-c1cn(-c2cccc(C(=O)Nc3cccc(Cl)c3)c2)nn1 [Example 17]	0.95
COc1cccc(NC(=O)c2cccc(-n3cc(-c4cncn4C)nn3)c2)c1 [Example 14]	0.86
Cn1cncc1-c1cn(-c2cccc(C(=O)Nc3cccc([N+](=O)[O-])c3)c2)nn1 [Example 15]	< 0.38
Cc1ccc(C(=O)Nc2cccc(C(F)(F)F)c2)cc1-n1cc(-c2cncn2C)nn1 [Example 1]	0.4
Cn1cncc1-c1cn(-c2cccc(C(=O)Nc3cccc(C#N)c3)c2)nn1 [Example 11]	0.74
COC(=O)c1cccc(NC(=O)c2cccc(-n3cc(-c4cncn4C)nn3)c2)c1 [Example 12]	0.73
Cn1cncc1-c1cn(-c2cccc(C(=O)Nc3cccc(C(F)(F)F)c3F)c2)nn1 [Example 9]	0.45
CN(C)c1cccc(NC(=O)c2cccc(-n3cc(-c4cncn4C)nn3)c2)c1 [Example 13]	0.85
Cn1cncc1-c1cn(-c2cccc(C(=O)Nc3cccc(OC(F)(F)C(F)F)c3)c2)nn1 [Example 20]	0.64
Cn1cncc1-c1cn(-c2cccc(C(=O)Nc3cccc(C(F)(F)F)c3)c2)nn1 [Example 2, 3-[4-(1-Methyl-1H-imidazol-5-yl)-1H-1,2,3-triazol-1-yl]-N-[3-(trifluoromethyl)-phenyl]benzamide]	0.05
Cc1cc(Br)cc(NC(=O)c2cccc(-n3cc(-c4cncn4C)nn3)c2)c1 [Example 16]	< 0.38
Cc1ccc(C(=O)Nc2cccc(Cl)c2)cc1-n1cc(-c2cncn2C)nn1 [Example 5]	0.37
Cn1cncc1-c1cn(-c2cccc(C(=O)Nc3cccc(Cl)c3)c2)nn1 [Example 3]	0.21
Cc1ccc(C(=O)Nc2cccc(OC(F)(F)F)c2)cc1-n1cc(-c2cncn2C)nn1 [Example 6]	0.21
Cc1ncn(C)c1-c1cn(-c2cccc(C(=O)Nc3cccc(OC(F)(F)F)c3)c2)nn1 [Example 18]	0.64
Cn1cncc1-c1cn(-c2cccc(C(=O)Nc3cccc(OC(F)(F)F)c3)c2)nn1 [Example 4]	0.47
Cc1ncn(C)c1-c1cn(-c2cccc(C(=O)Nc3cccc(C(F)(F)F)c3)c2)nn1 [Example 8, 3-[4-(1,4-Dimethyl-1H-imidazol-5-yl)-1H-1,2,3-triazol-1-yl]-N-[3-(trifluoromethyl)-phenyl]benzamide]	0.63
Cn1cncc1-c1cn(-c2cccc(C(=O)Nc3cccc(OC(F)F)c3)c2)nn1 [Example 19]	< 0.38
Cn1cncc1-c1cn(-c2cccc(C(=O)Nc3cc(F)cc(C(F)(F)F)c3)c2)nn1 [Example 10]	< 0.38
Cc1cccc(NC(=O)c2cccc(-n3cc(-c4cncn4C)nn3)c2)c1 [Example 7]	0.37
